Experimental data as given in patent US20230242843A1, “GREEN SOLVENT, LAUNDRY COMPOSITION COMPRISING SAME, AND WASHING MACHINE” (LG HOUSEHOLD & HEALTH CARE LTD., priority 2020, published 2023).

Legend:
[1] = log P (octanol-water fractionation coefficient); settings: for logP: octanol/water
[2] = Composition identification of the solvent after 30 times of washing with solvent reuse; type: physicochemical; settings: for Content in solvent collected in the solvent storage tank after final washing: initial 96.0 wt %
Description: The washing machines according to Examples and Comparative Examples according to the present disclosure were prepared, and washing was performed under the same conditions. The same type of fibers was put into each washing machine, and a composition including a compound according to the Chemical Formula 1 (wherein R1 and R2 are alkyl having 1 carbon atom, and R3 is hydrogen) was used as a laundry solvent.
At the first washing, the solvent was supplied, the washing was performed for 15 minutes, the solvent was collected while undergoing a drying process, another fiber was put into the washing machine, and the collected solvent was re-supplied for washing. 30 times of washing in total were performed in the same way, without replacement of the solvent storage tank or cartridge during the washing process.

logP [1]	Compound	further results
0.71	COc1cc(C=O)ccc1O [Vanillin]	–
–	CC1(C)OCC(CO)O1 (stereo not drawn) [Chemical Formula 1, solketal]	Amount decomposed into acetone and glycerol ([2]; 30 washings, conventional washing machine (Comparative Example 2-1)): approximately 30 wt %; Content in solvent collected in the solvent storage tank after final washing ([2]; 30 washings, washing machine of Comparative Example 2-1 (conventional)): 69.0 wt %; Content in solvent collected in the solvent storage tank after final washing ([2]; 30 washings, washing machine of Example 2-1): 91.4 wt %; Content in solvent collected in the solvent storage tank after final washing ([2]; 30 washings, washing machine of Example 2-2): 92.7 wt %; Content in solvent collected in the solvent storage tank after final washing ([2]; 30 washings, washing machine of Example 2-3): 94.1 wt %; Content in solvent collected in the solvent storage tank after final washing ([2]; 30 washings, washing machine of Example 2-4): 94.9 wt %; Content in solvent collected in the solvent storage tank after final washing ([2]; 30 washings, washing machine of Example 2-5): 95.5 wt %; Amount decomposed ([2]; after 30 times of washing, washing machine according to an example embodiment): less than 10 wt %; Log P ([1]; octanol-water): approximately 1.07
1.63	Cc1nc(N(C)C)nc(O)c1C [2-(dimethylamino)-5,6-dimethylpyrimidin-4-ol]	–
4.68	CCCCCCC(C=O)=Cc1ccccc1 [Alpha-hexyl cinnamaldehyde, reference compound]	–
1.13	Oc1cccc(O)c1 [Resorcinol]	–
2.19	Cc1cc(O)c(C)c(O)c1C(=O)O [2,4-Dihydroxy-3,6-dimethylbenzoic acid]	–

Compound	logP [1]	further results
CC(C)=CCC/C(C)=C/CO [Geraniol]	3.47	–
OCCO [Ethylene glycol, reference compound]	-1.93	–
CCCCOCCOCCO [2-(2-butoxyethoxy)ethanol]	0.65	–
CCOC(=O)c1ccccc1C(=O)O [2-(ethoxycarbonyl)benzoic acid]	1.8	–
